Values quoted from earlier work, collected in patent publication US20260027218A1, “STAR-SHAPED GRAFT COPOLYMERS” (POLYPEPTIDE THERAPEUTIC SOLUTIONS, S.L., priority 2022, published 2026).

log P: 2.98
SMILES: CCN(CC)c1ccc2nc3c4ccccc4c(=O)cc-3oc2c1 [Nile Red]
